In patent publication US10758534B2 (Vertex Pharmaceuticals Incorporated, priority 2014, dated 2020):

Biological target: T1, F508del (Homo sapiens, UniProt P13569, DEL508-508)
T1 construct: expressed in transfected cells
Assay: Protocol 2: FRET membrane potential optical assay (VIPR), identification of correction compounds
Type: cell-based
Conditions: Table 3; compounds of Table 1 as modulators of CFTR activity; protocol not stated
Summary of the method: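 Corrector readout: membrane-potential FRET (CC2-DMPE donor, DiSBAC2(3) acceptor) on VIPR II after Cl⁻-free gluconate bath with 10 μM forskolin and 20 μM genistein. Before this, F508del-expressing NIH3T3 cells were exposed to test compound for 16 h at 37 °C without serum; 27 °C incubation served as temperature-correction control.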

T1 sequence (P13569 with tags, fused parts or gaps DEL508-508): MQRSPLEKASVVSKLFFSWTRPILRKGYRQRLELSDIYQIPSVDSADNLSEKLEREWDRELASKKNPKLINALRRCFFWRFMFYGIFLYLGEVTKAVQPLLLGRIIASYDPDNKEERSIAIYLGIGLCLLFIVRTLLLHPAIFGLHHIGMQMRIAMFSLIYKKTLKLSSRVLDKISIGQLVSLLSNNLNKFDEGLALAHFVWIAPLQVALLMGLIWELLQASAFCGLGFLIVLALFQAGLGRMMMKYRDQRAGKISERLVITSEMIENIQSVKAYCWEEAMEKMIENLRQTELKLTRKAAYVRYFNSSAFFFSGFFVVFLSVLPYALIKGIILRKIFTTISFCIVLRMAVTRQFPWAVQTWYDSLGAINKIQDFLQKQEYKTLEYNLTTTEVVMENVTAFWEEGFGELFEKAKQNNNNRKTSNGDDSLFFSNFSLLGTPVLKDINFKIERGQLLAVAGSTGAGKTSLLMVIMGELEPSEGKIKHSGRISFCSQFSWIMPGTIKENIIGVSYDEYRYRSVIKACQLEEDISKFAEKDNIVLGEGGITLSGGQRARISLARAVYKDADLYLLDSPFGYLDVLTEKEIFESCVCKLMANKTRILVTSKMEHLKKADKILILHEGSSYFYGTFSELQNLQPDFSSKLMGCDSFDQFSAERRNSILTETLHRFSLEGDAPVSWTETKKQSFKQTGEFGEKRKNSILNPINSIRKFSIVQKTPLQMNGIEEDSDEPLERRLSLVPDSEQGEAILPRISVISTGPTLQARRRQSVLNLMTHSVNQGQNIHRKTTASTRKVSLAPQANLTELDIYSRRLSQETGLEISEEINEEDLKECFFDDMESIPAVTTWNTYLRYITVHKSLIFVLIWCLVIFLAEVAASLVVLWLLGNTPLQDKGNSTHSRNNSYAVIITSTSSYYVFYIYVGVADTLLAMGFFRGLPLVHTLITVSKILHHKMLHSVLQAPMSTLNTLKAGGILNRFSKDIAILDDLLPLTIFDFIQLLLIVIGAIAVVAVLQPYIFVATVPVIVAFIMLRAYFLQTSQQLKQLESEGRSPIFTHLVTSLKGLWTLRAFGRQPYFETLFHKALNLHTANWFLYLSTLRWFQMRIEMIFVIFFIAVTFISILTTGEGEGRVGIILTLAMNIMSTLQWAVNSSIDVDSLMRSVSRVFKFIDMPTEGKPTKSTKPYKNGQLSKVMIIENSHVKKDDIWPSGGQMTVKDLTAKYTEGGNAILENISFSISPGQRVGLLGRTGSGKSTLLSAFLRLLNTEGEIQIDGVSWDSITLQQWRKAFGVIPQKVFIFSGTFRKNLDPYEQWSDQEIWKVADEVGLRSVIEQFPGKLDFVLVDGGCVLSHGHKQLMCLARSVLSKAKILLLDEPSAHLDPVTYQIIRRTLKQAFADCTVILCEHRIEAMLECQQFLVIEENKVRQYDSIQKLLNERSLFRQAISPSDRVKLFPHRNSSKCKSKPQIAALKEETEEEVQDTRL

| SMILES | EC30 |
| --- | --- |
| CC(C)COc1cc(F)cc(-c2ccc(C(=O)NS(=O)(=O)c3cccc(N)n3)c(N3[C@H](C)CC[C@@H]3C)n2)c1 [Compound 171, N-[(6-amino-2-pyridyl)sulfonyl]-2-[(2S,5R)-2,5-dimethylpyrrolidin-1-yl]-6-(3-fluoro-5-isobutoxy-phenyl)pyridine-3-carboxamide] | +++ (“+++” means <3 uM) |
| Cc1cc(C)c(Oc2nc(C3CCC(C)CC3)ccc2C(=O)NS(=O)(=O)c2cccc(N)n2)c(C)c1 (centres unmarked) [Compound 172, N-[(6-amino-2-pyridyl)sulfonyl]-6-(4-methylcyclohexyl)-2-(2,4,6-trimethylphenoxy)pyridine-3-carboxamide] | +++ (“+++” means <3 uM) |
| COc1cccc(S(=O)(=O)NC(=O)C2c3ccccc3CN2Cc2c(C)cc(C)cc2C)n1 (centres unmarked) [Compound 174, N-[(6-methoxy-2-pyridyl)sulfonyl]-2-[(2,4,6-trimethylphenyl)methyl]isoindoline-1-carboxamide] | ++ (“++” means between 3 uM and 10 uM) |
| Cc1cc(C)c(Oc2nc(C(F)(F)F)ccc2C(=O)NS(=O)(=O)c2cccc(N)n2)c(C)c1 [Compound 175, N-[(6-amino-2-pyridyl)sulfonyl]-6-(trifluoromethyl)-2-(2,4,6-trimethylphenoxy)pyridine-3-carboxamide] | ++ (“++” means between 3 uM and 10 uM) |
| Cc1cccc(C)c1Cn1nc(-c2cccc(N(C)C)c2)cc1C(=O)NS(=O)(=O)c1ccccc1 [Compound 178, N-(benzenesulfonyl)-5-[3-(dimethylamino)phenyl]-2-[(2,6-dimethylphenyl)methyl]pyrazole-3-carboxamide] | +++ (“+++” means <3 uM) |
| CCc1ccc2c(c1)cc(C(=O)NS(=O)(=O)c1cccc(N)n1)n2Cc1c(C)cc(C)cc1C [Compound 179, N-[(6-amino-2-pyridyl)sulfonyl]-5-ethyl-1-[(2,4,6-trimethylphenyl)methyl]indole-2-carboxamide] | +++ (“+++” means <3 uM) |
| Cc1cc(C)c(Oc2nc3c(cc2C(=O)NS(=O)(=O)c2cccc(N)n2)CCCC3(C)C)c(C)c1 [Compound 182, N-[(6-amino-2-pyridyl)sulfonyl]-8,8-dimethyl-2-(2,4,6-trimethylphenoxy)-6,7-dihydro-5H-quinoline-3-carboxamide] | +++ (“+++” means <3 uM) |
| COc1ccccc1S(=O)(=O)NC(=O)c1cc2ccccc2n1Cc1c(C)cc(C)cc1C [Compound 183, N-(2-methoxyphenyl)sulfonyl-1-[(2,4,6-trimethylphenyl)methyl]indole-2-carboxamide] | +++ (“+++” means <3 uM) |
| CC(c1ccccc1)N1Cc2ccccc2C1C(=O)NS(=O)(=O)c1cccc(N)c1 (centres unmarked) [Compound 187, N-(3-aminophenyl)sulfonyl-2-(1-phenylethyl)isoindoline-1-carboxamide] | ++ (“++” means between 3 uM and 10 uM) |
| CCOc1ccc(-c2ccc(C(=O)NS(=O)(=O)c3cc[nH]n3)c(Oc3c(C)cc(C)cc3C)n2)cc1 [Compound 190, 6-(4-ethoxyphenyl)-N-(1H-pyrazol-3-ylsulfonyl)-2-(2,4,6-trimethylphenoxy)pyridine-3-carboxamide] | +++ (“+++” means <3 uM) |
| COc1ncccc1S(=O)(=O)NC(=O)c1ccc(C(C)(C)C)nc1Oc1c(C)cc(C)cc1C [Compound 191, 6-tert-butyl-N-[(2-methoxy-3-pyridyl)sulfonyl]-2-(2,4,6-trimethylphenoxy)pyridine-3-carboxamide] | +++ (“+++” means <3 uM) |
| CC(c1ccccc1)n1c(C(=O)NS(=O)(=O)c2ccncc2)cc2c(F)cccc21 (centres unmarked) [Compound 192, 4-fluoro-1-(1-phenylethyl)-N-(4-pyridylsulfonyl)indole-2-carboxamide] | +++ (“+++” means <3 uM) |
| Cc1cc(C)c(Oc2nc(-c3cc(F)cc(OCC(C)C)c3)ccc2C(=O)NS(=O)(=O)c2cccc(N)n2)c(C)c1 [Compound 196, N-[(6-amino-2-pyridyl)sulfonyl]-6-(3-fluoro-5-isobutoxy-phenyl)-2-(2,4,6-trimethylphenoxy)pyridine-3-carboxamide] | +++ (“+++” means <3 uM) |
| CC1CCN(c2nc3c(cc2C(=O)NS(=O)(=O)c2nccnc2N)CCCC3(C)C)CC1 [Compound 197, N-(3-aminopyrazin-2-yl)sulfonyl-8,8-dimethyl-2-(4-methyl-1-piperidyl)-6,7-dihydro-5H-quinoline-3-carboxamide] | +++ (“+++” means <3 uM) |
| COc1cc2cc(C(=O)NS(=O)(=O)c3ccccc3)n(Cc3c(C)cc(C)cc3C)c2cc1OC [Compound 198, N-(benzenesulfonyl)-5,6-dimethoxy-1-[(2,4,6-trimethylphenyl)methyl]indole-2-carboxamide] | +++ (“+++” means <3 uM) |
| COc1ccc(S(=O)(=O)NC(=O)C2c3ccccc3CN2Cc2c(C)cc(C)cc2C)cn1 (centres unmarked) [Compound 200, N-[(6-methoxy-3-pyridyl)sulfonyl]-2-[(2,4,6-trimethylphenyl)methyl]isoindoline-1-carboxamide] | ++ (“++” means between 3 uM and 10 uM) |

The remaining lines, values ahead:

| EC30 | SMILES |
| --- | --- |
| +++ (“+++” means <3 uM) | Cc1cccc(C)c1Cn1nc(C(C)(C)C)cc1C(=O)NS(=O)(=O)c1c(F)cccc1F [Compound 170, 5-tert-butyl-N-(2,6-difluorophenyl)sulfonyl-2-[(2,6-dimethylphenyl)methyl]pyrazole-3-carboxamide] |
| ++ (“++” means between 3 uM and 10 uM) | Cc1cc(C)c(Cn2nc(C(C)(C)C)cc2C(=O)NS(=O)(=O)c2cccc(N)n2)c(C)c1 [Compound 173, N-[(6-amino-2-pyridyl)sulfonyl]-5-tert-butyl-2-[(2,4,6-trimethylphenyl)methyl]pyrazole-3-carboxamide] |
| +++ (“+++” means <3 uM) | COc1cccc(-c2cc(C(=O)NS(=O)(=O)c3ccccc3)n(Cc3c(C)cccc3C)n2)c1 [Compound 176, N-(benzenesulfonyl)-2-[(2,6-dimethylphenyl)methyl]-5-(3-methoxyphenyl)pyrazole-3-carboxamide] |
| ++ (“++” means between 3 uM and 10 uM) | Cc1cc(-c2nc(C(C)(C)C)ccc2C(=O)NS(=O)(=O)c2cccc(N)c2)ccc1F [Compound 177, N-(3-aminophenyl)sulfonyl-6-tert-butyl-2-(4-fluoro-3-methyl-phenyl)pyridine-3-carboxamide] |
| +++ (“+++” means <3 uM) | Cc1cc(C)c(Cn2nc(C(C)(C)C)cc2C(=O)NS(=O)(=O)c2cccc3[nH]ccc23)c(C)c1 [Compound 180, 5-tert-butyl-N-(1H-indol-4-ylsulfonyl)-2-[(2,4,6-trimethylphenyl)methyl]pyrazole-3-carboxamide] |
| +++ (“+++” means <3 uM) | Cc1cc(C)c(Cn2c(C(=O)NS(=O)(=O)c3cccc(N)c3)cc3c(F)cccc32)c(C)c1 [Compound 181, N-(3-aminophenyl)sulfonyl-4-fluoro-1-[(2,4,6-trimethylphenyl)methyl]indole-2-carboxamide] |
| ++ (“++” means between 3 uM and 10 uM) | Cc1cc(C)c(Cn2c(C(=O)NS(=O)(=O)c3cccc(N)c3)cc3cccnc32)c(C)c1 [Compound 184, N-(3-aminophenyl)sulfonyl-1-[(2,4,6-trimethylphenyl)methyl]pyrrolo[2,3-b]pyridine-2-carboxamide] |
| +++ (“+++” means <3 uM) | Cc1cccc(C)c1Cn1nc(C(C)(C)C)cc1C(=O)NS(=O)(=O)c1cccc(N)c1 [Compound 185, N-(3-aminophenyl)sulfonyl-5-tert-butyl-2-[(2,6-dimethylphenyl)methyl]pyrazole-3-carboxamide] |
| +++ (“+++” means <3 uM) | CC(c1ccccc1)n1c(C(=O)NS(=O)(=O)c2cccc(N)c2)cc2c(F)cccc21 (centres unmarked) [Compound 186, N-(3-aminophenyl)sulfonyl-4-fluoro-1-(1-phenylethyl)indole-2-carboxamide] |
| +++ (“+++” means <3 uM) | Cc1cc(C)c(Cn2nc(C(C)(C)C)cc2C(=O)NS(=O)(=O)c2cccc3c2ccn3CCO)c(C)c1 [Compound 188, 5-tert-butyl-N-[1-(2-hydroxyethyl)indol-4-yl]sulfonyl-2-[(2,4,6-trimethylphenyl)methyl]pyrazole-3-carboxamide] |
| +++ (“+++” means <3 uM) | CC(C)(C)c1cc(C(=O)NS(=O)(=O)c2cccc(N)c2)n(Cc2c(Cl)cccc2C(F)(F)F)n1 [Compound 189, N-(3-aminophenyl)sulfonyl-5-tert-butyl-2-[[2-chloro-6-(trifluoromethyl)phenyl]methyl]pyrazole-3-carboxamide] |
| +++ (“+++” means <3 uM) | Cc1ccccc1N(C)c1nc(C(C)(C)C)ccc1C(=O)NS(=O)(=O)c1cccc(N)c1 [Compound 193, N-(3-aminophenyl)sulfonyl-6-tert-butyl-2-(N,2-dimethylanilino)pyridine-3-carboxamide] |
| +++ (“+++” means <3 uM) | Cc1cc(C)c(Cn2c(C(=O)NS(=O)(=O)c3cccc(N)c3)cc3cccc(C)c32)c(C)c1 [Compound 194, N-(3-aminophenyl)sulfonyl-7-methyl-1-[(2,4,6-trimethylphenyl)methyl]indole-2-carboxamide] |
| +++ (“+++” means <3 uM) | Cc1cc(C)c(Cn2cc(C(C)(C)C)cc2C(=O)NS(=O)(=O)c2cccc(N)c2)c(C)c1 [Compound 195, N-(3-aminophenyl)sulfonyl-4-tert-butyl-1-[(2,4,6-trimethylphenyl)methyl]pyrrole-2-carboxamide] |
| +++ (“+++” means <3 uM) | Cc1ccc(-c2cc(C(=O)NS(=O)(=O)c3ccccc3)n(Cc3c(C)cccc3C)n2)cc1 [Compound 199, N-(benzenesulfonyl)-2-[(2,6-dimethylphenyl)methyl]-5-(p-tolyl)pyrazole-3-carboxamide] |
| +++ (“+++” means <3 uM) | Cc1cc(C)c(C(C)n2nc(C(C)(C)C)cc2C(=O)NS(=O)(=O)c2ccccc2)c(C)c1 (centres unmarked) [Compound 201, N-(benzenesulfonyl)-5-tert-butyl-2-[1-(2,4,6-trimethylphenyl)ethyl]pyrazole-3-carboxamide] |
